# Patent US9266871B2, “Trifluoromethyl-substituted fused pyrimidines and their use” (BAYER PHARMA AKTIENGESELLSCHAFT, priority 2013, dated 2016)
# Test system: spontaneously hypertensive rats (SHR Okamoto)
# Experiment: Radiotelemetric measurement of blood pressure on conscious spontaneously hypertensive rats
# Type: in vivo, rat
# Excerpt: B-3. Radiotelemetric Measurement of Blood Pressure on Conscious Spontaneously Hypertensive Rats
# A commercially available telemetry system from DATA SCIENCES INTERNATIONAL DSI, USA, is employed for the blood pressure measurement on conscious rats described below.
# The system consists of 3 main components: • implantable transmitters (Physiotel® telemetry transmitter) • receivers (Physiotel® receiver) which are linked via a multiplexer (DSI Data Exchange Matrix) to a • data acquisition computer.
# The telemetry system makes it possible to continuously record blood pressure, heart rate and body motion of conscious animals in their usual habitat.
# The investigations are carried out on adult female spontaneously hypertensive rats (SHR Okamoto) with a body weight of >200 g. SHR/NCrl from the Okamoto Kyoto School of Medicine, 1963 were a cross of male Wistar Kyoto rats with highly elevated blood pressure and female rats having a slightly elevated blood pressure and at F13 handed over to the U.S. National Institutes of Health.
# Unless indicated otherwise, the substances to be investigated are administered orally by gavage in each case to a group of animals (n=6). The test substances are dissolved in suitable solvent mixtures, or suspended in 0.5% strength Tylose, appropriate for an administration volume of 2 ml/kg of body weight.
# In the standard procedure, the following are measured for 10-second periods in each case: • systolic blood pressure (SBP) • diastolic blood pressure (DBP) • mean arterial pressure (MAP) • heart rate (HR) • activity (ACT).
# The acquisition of measurements is repeated under computer control at 5-minute intervals. The source data obtained as absolute value are corrected in the diagram with the currently measured barometric pressure (Ambient Pressure Reference Monitor; APR-1) and stored as individual data. Further technical details are given in the extensive documentation from the manufacturing company (DSI).
# Unless indicated otherwise, the test substances are administered at 9.00 am on the day of the experiment. Following the administration, the parameters described above are measured over 24 hours.
# After the end of the experiment, the acquired individual data are sorted using the analysis software (DATAQUEST™ A.R.T.™ ANALYSIS). The blank value is assumed to be the time 2 hours before administration, and so the selected data set encompasses the period from 7.00 am on the day of the experiment to 9.00 am the following day.
# The data are smoothed over a presettable time by determination of the average (30-minute average) and transferred as a text file to a storage medium. The measured values presorted and compressed in this way are transferred into Excel templates and tabulated. For each day of the experiment, the data obtained are stored in a dedicated file bearing the number of the experiment. Results and test protocols are filed sorted by numbers.
smiles,measurement,setting,value
"C[C@@]1(C(F)(F)F)C(=O)Nc2nc(-c3nn(Cc4ncccc4F)c4ncc(F)cc34)nc(NCCC(F)(F)F)c21 (single isomer, unassigned) [Example 1-1]",mean blood pressure,"0.03 mg/kg, 0 hours after substance administration",148.8 mmHg
same,mean blood pressure,"0.03 mg/kg, 1 hours after substance administration",133.5 mmHg
same,mean blood pressure,"0.03 mg/kg, 2 hours after substance administration",127.3 mmHg
same,mean blood pressure,"0.03 mg/kg, 3 hours after substance administration",128.8 mmHg
same,mean blood pressure,"0.03 mg/kg, 4 hours after substance administration",132.3 mmHg
same,mean blood pressure,"0.03 mg/kg, 5 hours after substance administration",126.0 mmHg
same,mean blood pressure,"0.03 mg/kg, 6 hours after substance administration",124.5 mmHg
same,mean blood pressure,"0.03 mg/kg, 7 hours after substance administration",138.8 mmHg
same,mean blood pressure,"0.03 mg/kg, 8 hours after substance administration",143.8 mmHg
same,mean blood pressure,"0.03 mg/kg, 9 hours after substance administration",136.5 mmHg
same,mean blood pressure,"0.03 mg/kg, 10 hours after substance administration",143.8 mmHg
same,mean blood pressure,"0.03 mg/kg, 11 hours after substance administration",141.7 mmHg
same,mean blood pressure,"0.03 mg/kg, 12 hours after substance administration",141.7 mmHg
same,mean blood pressure,"0.03 mg/kg, 13 hours after substance administration",150.5 mmHg
same,mean blood pressure,"0.03 mg/kg, 14 hours after substance administration",150.8 mmHg
same,mean blood pressure,"0.03 mg/kg, 15 hours after substance administration",153.8 mmHg
same,mean blood pressure,"0.03 mg/kg, 16 hours after substance administration",145.7 mmHg
same,mean blood pressure,"0.03 mg/kg, 17 hours after substance administration",155.3 mmHg
same,mean blood pressure,"0.03 mg/kg, 18 hours after substance administration",151.2 mmHg
same,mean blood pressure,"0.03 mg/kg, 19 hours after substance administration",146.3 mmHg
same,mean blood pressure,"0.03 mg/kg, 20 hours after substance administration",140.2 mmHg
same,mean blood pressure,"0.03 mg/kg, 21 hours after substance administration",142.2 mmHg
same,mean blood pressure,"0.03 mg/kg, 22 hours after substance administration",142.8 mmHg
same,mean blood pressure,"0.03 mg/kg, 23 hours after substance administration",143.0 mmHg
same,mean blood pressure,"0.03 mg/kg, 24 hours after substance administration",143.2 mmHg
same,mean blood pressure,"0.3 mg/kg p.o., 0 hours after substance administration",138.7 mmHg
same,mean blood pressure,"0.3 mg/kg p.o., 1 hours after substance administration",116.3 mmHg
same,mean blood pressure,"0.3 mg/kg p.o., 2 hours after substance administration",106.8 mmHg
same,mean blood pressure,"0.3 mg/kg p.o., 3 hours after substance administration",107.2 mmHg
same,mean blood pressure,"0.3 mg/kg p.o., 4 hours after substance administration",105.5 mmHg
same,mean blood pressure,"0.3 mg/kg p.o., 5 hours after substance administration",106.2 mmHg
same,mean blood pressure,"0.3 mg/kg p.o., 6 hours after substance administration",106.8 mmHg
same,mean blood pressure,"0.3 mg/kg p.o., 7 hours after substance administration",101.7 mmHg
same,mean blood pressure,"0.3 mg/kg p.o., 8 hours after substance administration",111.3 mmHg
same,mean blood pressure,"0.3 mg/kg p.o., 9 hours after substance administration",109.0 mmHg
same,mean blood pressure,"0.3 mg/kg p.o., 10 hours after substance administration",113.3 mmHg
same,mean blood pressure,"0.3 mg/kg p.o., 11 hours after substance administration",114.8 mmHg
same,mean blood pressure,"0.3 mg/kg p.o., 12 hours after substance administration",112.0 mmHg
same,mean blood pressure,"0.3 mg/kg p.o., 13 hours after substance administration",117.2 mmHg
same,mean blood pressure,"0.3 mg/kg p.o., 14 hours after substance administration",115.7 mmHg
same,mean blood pressure,"0.3 mg/kg p.o., 15 hours after substance administration",117.8 mmHg
same,mean blood pressure,"0.3 mg/kg p.o., 16 hours after substance administration",111.5 mmHg
same,mean blood pressure,"0.3 mg/kg p.o., 17 hours after substance administration",121.7 mmHg
same,mean blood pressure,"0.3 mg/kg p.o., 18 hours after substance administration",132.3 mmHg
same,mean blood pressure,"0.3 mg/kg p.o., 19 hours after substance administration",117.0 mmHg
same,mean blood pressure,"0.3 mg/kg p.o., 20 hours after substance administration",110.7 mmHg
same,mean blood pressure,"0.3 mg/kg p.o., 21 hours after substance administration",124.0 mmHg
same,mean blood pressure,"0.3 mg/kg p.o., 22 hours after substance administration",125.5 mmHg
same,mean blood pressure,"0.3 mg/kg p.o., 23 hours after substance administration",139.0 mmHg
same,mean blood pressure,"0.3 mg/kg p.o., 24 hours after substance administration",150.5 mmHg
